Laboratory results from the supplement of paper PMC10307832.

Assays:
Assay in all cases: relative viability (nuclei count vs DMSO), 5 days (fraction); higher = more cells survive
Dinaciclib + Bortezomib = compound: CCc1cnn2c(NCc3ccc[n+]([O-])c3)cc(N3CCCC[C@H]3CCO)nc12 [Dinaciclib] + CC(C)C[C@H](NC(=O)[C@H](Cc1ccccc1)NC(=O)c1cnccn1)B(O)O [Bortezomib] (partner 0.002 µM)
Method in brief: (§1)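 Relative viability divides the nuclei count in treated wells by that in vehicle wells. Lung cancer cell lines were seeded in 1536-well plates, dosed by pin tool the next day, and fixed and stained after 5 days in one step with final 0.05% Triton X-100, 1% formaldehyde and 1 ug/ml Hoechst. Dosing was a single drug or a fixed anchor-drug dose plus five library-drug doses (not always all listed) in √10 steps, and values are medians of duplicate plates imaged at 4×.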

Dinaciclib + Luminespib = compound: CCc1cnn2c(NCc3ccc[n+]([O-])c3)cc(N3CCCC[C@H]3CCO)nc12 [Dinaciclib] + CCNC(=O)c1noc(-c2cc(C(C)C)c(O)cc2O)c1-c1ccc(CN2CCOCC2)cc1 [Luminespib] (partner 0.01 µM)
Method in brief: as §1

Dinaciclib + Foretinib = compound: CCc1cnn2c(NCc3ccc[n+]([O-])c3)cc(N3CCCC[C@H]3CCO)nc12 [Dinaciclib] + COc1cc2c(Oc3ccc(NC(=O)C4(C(=O)Nc5ccc(F)cc5)CC4)cc3F)ccnc2cc1OCCCN1CCOCC1 [Foretinib] (partner 0.25 µM)
Method in brief: as §1

Dinaciclib + Tozasertib = compound: CCc1cnn2c(NCc3ccc[n+]([O-])c3)cc(N3CCCC[C@H]3CCO)nc12 [Dinaciclib] + Cc1cc(Nc2cc(N3CCN(C)CC3)nc(Sc3ccc(NC(=O)C4CC4)cc3)n2)n[nH]1 [Tozasertib] (partner 0.1 µM)
Method in brief: as §1

Dinaciclib + Vorinostat = compound: CCc1cnn2c(NCc3ccc[n+]([O-])c3)cc(N3CCCC[C@H]3CCO)nc12 [Dinaciclib] + O=C(CCCCCCC(=O)Nc1ccccc1)NO [Vorinostat] (partner 1 µM)
Method in brief: as §1

| Cell Line | relative viability (Dinaciclib + Bortezomib; first compound 0.009487 µM) | relative viability (Dinaciclib + Bortezomib; first compound 0.03 µM) | relative viability (Dinaciclib + Bortezomib; first compound 0.09487 µM) | relative viability (Dinaciclib + Bortezomib; first compound 0.3 µM) | relative viability (Dinaciclib + Luminespib; first compound 0.009487 µM) | relative viability (Dinaciclib + Luminespib; first compound 0.03 µM) | relative viability (Dinaciclib + Luminespib; first compound 0.09487 µM) | relative viability (Dinaciclib + Luminespib; first compound 0.3 µM) | relative viability (Dinaciclib + Foretinib; first compound 0.009487 µM) | relative viability (Dinaciclib + Foretinib; first compound 0.03 µM) | relative viability (Dinaciclib + Foretinib; first compound 0.09487 µM) | relative viability (Dinaciclib + Foretinib; first compound 0.3 µM) | relative viability (Dinaciclib + Tozasertib; first compound 0.009487 µM) | relative viability (Dinaciclib + Tozasertib; first compound 0.03 µM) | relative viability (Dinaciclib + Tozasertib; first compound 0.09487 µM) | relative viability (Dinaciclib + Tozasertib; first compound 0.3 µM) | relative viability (Dinaciclib + Vorinostat; first compound 0.009487 µM) | relative viability (Dinaciclib + Vorinostat; first compound 0.03 µM) | relative viability (Dinaciclib + Vorinostat; first compound 0.09487 µM) | relative viability (Dinaciclib + Vorinostat; first compound 0.3 µM) |
| --- | --- | --- | --- | --- | --- | --- | --- | --- | --- | --- | --- | --- | --- | --- | --- | --- | --- | --- | --- | --- |
| CAL-12T | 0.484 | 0.203 | 0.142 | 0.127 | 0.133 | 0.085 | 0.0815 | 0.0961 | 1.07 | 0.105 | 0.13 | 0.116 | 0.166 | 0.0862 | 0.0939 | 0.0838 | 0.511 | 0.0992 | 0.1 | 0.131 |
| COR-L23 | 0.646 | 0.0952 | 0.0792 | 0.0558 | 0.226 | 0.0887 | 0.0655 | 0.0681 | 0.871 | 0.118 | 0.0996 | 0.0936 | 0.214 | 0.0848 | 0.0671 | 0.0704 | 0.41 | 0.0812 | 0.087 | 0.0797 |
| COR-L 105 | 0.61 | 0.192 | 0.219 | 0.212 | 0.509 | 0.214 | 0.229 | 0.169 | 1.17 | 0.644 | 0.247 | 0.259 | 0.369 | 0.304 | 0.25 | 0.208 | 0.679 | 0.444 | 0.302 | 0.302 |
| ChaGo-K-1 | 0.637 | 0.222 | 0.178 | 0.187 | 0.342 | 0.182 | 0.123 | 0.0984 | 0.918 | 0.245 | 0.12 | 0.14 | 0.22 | 0.168 | 0.132 | 0.111 | 0.803 | 0.197 | 0.139 | 0.112 |
